In patent publication US4680293A, “3-imidazolylalkyl-, triazolylalkyl-, pyridinylalkyl-1,2,3-benzotriazin-4(3H)-ones and derivatives thereof” (American Cyanamid Company, priority 1986, dated 1987):

Molecular target: T1, thromboxane synthetase (Rattus norvegicus, UniProt P49430)
T1 sequence (P49430 1-533): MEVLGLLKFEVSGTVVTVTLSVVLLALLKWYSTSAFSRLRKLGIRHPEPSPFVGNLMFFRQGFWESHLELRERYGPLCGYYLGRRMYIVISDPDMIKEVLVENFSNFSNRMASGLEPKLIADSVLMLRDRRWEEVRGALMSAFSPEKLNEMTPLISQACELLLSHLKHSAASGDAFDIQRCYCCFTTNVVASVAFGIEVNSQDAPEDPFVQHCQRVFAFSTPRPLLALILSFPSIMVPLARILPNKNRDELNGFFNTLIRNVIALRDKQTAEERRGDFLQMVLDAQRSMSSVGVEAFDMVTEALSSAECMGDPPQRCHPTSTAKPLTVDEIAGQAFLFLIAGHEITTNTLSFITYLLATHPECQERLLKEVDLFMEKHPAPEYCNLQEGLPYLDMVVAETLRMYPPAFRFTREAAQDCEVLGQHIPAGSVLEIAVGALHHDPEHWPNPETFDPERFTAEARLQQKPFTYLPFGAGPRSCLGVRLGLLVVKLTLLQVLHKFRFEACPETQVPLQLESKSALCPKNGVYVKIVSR
Assay: Inhibition of thromboxane formation in washed SHR platelets (TXB2 by direct radioimmunoassay)
Conditions: read-out: % Inhibition (of TXB2 formation), drug at 10^-4 M, 10 minutes at 37° C.
Procedure: From Okamoto-Aoki spontaneously hypertensive rats (SHR) (Taconic Farms, Germantown, NY) between 19 and 24 weeks in age, under urethane anesthesia, 10 μl of arterial blood was collected in one ml of 3.2% sodium citrate in a polystyrene tube. The blood was diluted with 3 ml cold saline and centrifuged at room temperature for 15 minutes at 460×g. The platelet rich plasma (PRP) was separated. The platelets were isolated by centrifuging the PRP for 10 minutes at 1060×g and were washed in 4 ml cold oxygenated Krebs phosphate buffer, pH 7.4. The chilled platelets recovered from centrifuging at 800×g for 10 minutes were resuspended in oxygenated Krebs phosphate buffer and diluted to contain 4.5-6.0×10^4 platelets/μl.
The inhibition of thromboxane (TX) formation was studied by determining the concentration of thromboxane B2 (TXB2), the stable hydrolysis product of TXA2. Assay samples, prepared on ice, contained 200 μl platelet suspension, 50 μl saline, and 50 μl vehicle or drug under study at a concentration of 10^-4 M (with OKY-1581, UK-37248-01, 1-benzylimidazole, and/or indomethacin used as standards). […] The TXB2 content for each sample was determined by a direct radioimmunoassay (RIA) utilizing a TXB2 specific RIA kit purchased from New England Nuclear, Boston, MA and results expressed as pg TXB2 formed minute^-1 sample^- 1, from which the percent inhibition of TXB2 formation was calculated.

inhibition at 100 µM | Structure (SMILES)
97% | CC(Cn1ccnc1)Cn1nnc2ccc(Cl)cc2c1=O (centres unmarked) [6-Chloro-3-[3-(1H-imidazol-1-yl)-2-methylpropyl]-1,2,3-benzotriazin-4(3H)-one]
79% | O=c1c2cc(Cl)ccc2nnn1CCCCn1ccnc1
